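Each compound was tested at five concentrations against cells in 96-well plates for 48 hours. At the GI50, growth is halved.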 Calls of active or inactive are those of the source. No stated cut-off is given here; in the data, active = GI50 up to about 1.1 µM and inactive = higher. A value given as a limit tells only on which side of the number the result lay.

Some test systems named below: NCI-H23; RXF 393; SK-MEL-5; HCC 2998; SK-MEL-2; UACC-257; OVCAR-4; SK-MEL-28; NCI-H460; COLO 205; EKVX; HCT-116; SF-539; SNB-78; MOLT-4; UO-31; HCT-15; A549; KM12; M19-MEL.
Holding throughout (assay): NCI-60 cell line screen, 48 h

Regarding `O=C(Nc1ccc(F)cc1)C(=O)C(C(=O)c1ccccc1F)C1OC(=O)c2ccccc21` (stereo not drawn), the GI50 in the assay on NCI-H23 was > 100 µM (inactive); in the assay on RXF 393, > 100 µM (inactive); with SK-MEL-5, > 100 µM (inactive); with HCC 2998, 38.5 µM (inactive); in the assay on SK-MEL-2, 54.1 µM (inactive); in the assay with UACC-257, > 100 µM (inactive). Moreover, the GI50 in the assay on OVCAR-4 is 55.3 µM (inactive); in the assay with SK-MEL-28, 87.3 µM (inactive); in the assay on NCI-H460, 47 µM (inactive); in the assay on COLO 205, 48.1 µM (inactive); in the assay on EKVX it was 68.4 µM (inactive); with HCT-116 it was 45.8 µM (inactive). The GI50 in the assay on SF-539 was 31 µM (inactive); with SNB-78 it was 44.6 µM (inactive); in the assay on MOLT-4, 14.9 µM (inactive); in the assay with UO-31 it was 52.6 µM (inactive); in the assay with HCT-15, 23.6 µM; with A549, > 100 µM (inactive). For the same compound, the GI50 in the assay with KM12 is 79.4 µM (inactive).

For the compound `CCOCc1cc(=O)c2c(O)cc3c(c2o1)CCC(C)(C)O3`, the GI50 with NCI-H23, in the assay with M19-MEL, in the assay with SK-MEL-5, with SK-MEL-2, in the assay on SK-MEL-28 and in the assay on NCI-H460 was > 100 µM (inactive) each time. Besides, the GI50 in the assay with COLO 205, in the assay on EKVX, in the assay on SF-539, with SNB-78, in the assay on MOLT-4 and in the assay on UO-31 was > 100 µM (inactive) each time. In addition, the GI50 in the assay on HCT-15 is greater than 100 µM.

Take `COc1cc(S(=O)(=O)Nc2ccc(-c3csc(N4C(=O)C(C)SC4c4cccc(Oc5ccccc5)c4)n3)cc2)ccc1Cl` (stereo not drawn): the GI50 is 33 µM (inactive) in the assay with NCI-H23; 17.3 µM (inactive) in the assay with RXF 393; 27.5 µM (inactive) with SK-MEL-5; 86.9 µM (inactive) in the assay with SK-MEL-2; 55.8 µM (inactive) with SK-MEL-28; 27.7 µM (inactive) with COLO 205. The GI50 was 53.2 µM (inactive) in the assay on EKVX; 34.8 µM (inactive) in the assay with HCT-116; 27.6 µM (inactive) in the assay with SF-539; 37.8 µM (inactive) in the assay on MOLT-4; 64.6 µM (inactive) in the assay with UO-31; 36.9 µM with HCT-15. Moreover, the GI50 is > 100 µM (inactive) in the assay on A549 and 34.5 µM (inactive) with KM12.

For the compound `O=[S@@]1Nc2ccc(Br)cc2S1`, the GI50 in the assay on NCI-H23 was 25.2 µM (inactive); in the assay with M19-MEL, 3.98 µM (inactive); in the assay on SK-MEL-5, 12.6 µM (inactive); in the assay with SK-MEL-2, 4.67 µM (inactive); with UACC-257 it was > 100 µM (inactive); with SK-MEL-28, 4.53 µM (inactive). In addition, the GI50 was 41.6 µM (inactive) in the assay on EKVX; 4.66 µM (inactive) in the assay on HCT-116; 3.94 µM (inactive) in the assay with SF-539; > 100 µM (inactive) with SNB-78; 6.47 µM (inactive) in the assay with MOLT-4; 1.05 µM (active) in the assay with UO-31. Besides, the GI50 is 4.56 µM (inactive) in the assay with A549 and 2.48 µM (inactive) in the assay on KM12.

`Clc1ccc(N/N=C(\c2ccccc2)c2ccccn2)nc1`: the GI50 with NCI-H23 is 0.0526 µM (active); in the assay with RXF 393, 2.2 µM (inactive); with SK-MEL-5, 0.0578 µM (active); in the assay with HCC 2998 it was 3.81 µM (inactive); in the assay on SK-MEL-2, 3.85 µM (inactive); in the assay on UACC-257 it was < 0.0158 µM (active). Also, the GI50 is 3.04 µM (inactive) with OVCAR-4; 2.67 µM (inactive) in the assay with SK-MEL-28; < 0.01 µM (active) with COLO 205; < 0.01 µM (active) with EKVX; < 0.0148 µM (active) in the assay with HCT-116; 0.622 µM (active) with SF-539. Also, the GI50 in the assay with MOLT-4 is < 0.01 µM (active); in the assay with UO-31 it was 0.0494 µM (active); with HCT-15, less than 0.0183 µM; in the assay on A549 it was 0.387 µM (active); in the assay with KM12 it was 0.348 µM (active).

`CCOC(=O)c1nc2ccc(OC)cc2c2c1Cc1ccccc1-2`: the GI50 with NCI-H23 was > 100 µM (inactive); with RXF 393 it was 16.2 µM (inactive); in the assay on M19-MEL, > 100 µM (inactive); in the assay with SK-MEL-5 it was 42.8 µM (inactive); in the assay with HCC 2998 it was 87.1 µM (inactive); in the assay on SK-MEL-2 it was > 100 µM (inactive). The GI50 with UACC-257 was > 100 µM (inactive); with OVCAR-4, 49.8 µM (inactive); in the assay on SK-MEL-28, > 100 µM (inactive); with NCI-H460 it was > 100 µM (inactive); with COLO 205, > 100 µM (inactive); with HCT-116, 8.95 µM (inactive). Further, the GI50 in the assay with SF-539 is 84.9 µM (inactive); with SNB-78, > 100 µM (inactive); in the assay on MOLT-4, > 100 µM (inactive); in the assay with UO-31 it was > 100 µM (inactive); with HCT-15 it was greater than 100 µM; with A549 it was > 100 µM (inactive). Further, in the assay with KM12, the GI50 is > 100 µM (inactive).

As for `COC(=O)/C=C\n1nc(Br)c(=O)[nH]c1=O`, the GI50 was > 100 µM (inactive) in the assay with NCI-H23; 83.9 µM (inactive) in the assay on RXF 393; > 100 µM (inactive) with SK-MEL-5; > 100 µM (inactive) with HCC 2998; > 100 µM (inactive) with SK-MEL-2; > 100 µM (inactive) with UACC-257. Moreover, the GI50 in the assay with OVCAR-4, in the assay with SK-MEL-28, in the assay on NCI-H460, in the assay on COLO 205, in the assay with EKVX and with SF-539 was > 100 µM (inactive) each time. The GI50 was > 100 µM (inactive) in the assay with UO-31, 85.7 µM with HCT-15, > 100 µM (inactive) with A549 and > 100 µM (inactive) in the assay on KM12.

As to `O=S(O)c1cc(Cl)cc(Cl)c1O`, the GI50 in the assay on NCI-H23, with RXF 393, with M19-MEL, with HCC 2998, with SK-MEL-2 and with UACC-257 was > 100 µM (inactive) throughout. For the same compound, the GI50 in the assay on OVCAR-4, with SK-MEL-28, in the assay on NCI-H460, in the assay on EKVX, with HCT-116 and in the assay with SF-539 was > 100 µM (inactive) throughout. Moreover, the GI50 in the assay on SNB-78, in the assay on MOLT-4, with UO-31 and with KM12 was > 100 µM (inactive) each time.

For the compound `CN(C)CCNC(=O)c1ccc(Cl)c2ccc(-c3ccccc3)nc12`, the GI50 is 5.38 µM (inactive) in the assay on NCI-H23; 5.38 µM (inactive) in the assay with RXF 393; 3.69 µM (inactive) in the assay with M19-MEL; 1.95 µM (inactive) with SK-MEL-5; 4.67 µM (inactive) with HCC 2998; 7.67 µM (inactive) with SK-MEL-2. The GI50 in the assay on UACC-257 was 4.04 µM (inactive); with OVCAR-4, 3.54 µM (inactive); with SK-MEL-28 it was 4.27 µM (inactive); in the assay on NCI-H460 it was 2.07 µM (inactive); in the assay with COLO 205, 1.61 µM (inactive); in the assay with HCT-116, 1.88 µM (inactive). Further, the GI50 is 3.66 µM (inactive) in the assay with SF-539; 6.32 µM (inactive) in the assay with SNB-78; 1.82 µM (inactive) with MOLT-4; 1.77 µM (inactive) in the assay with UO-31; 3.42 µM with HCT-15; 2.92 µM (inactive) in the assay with A549. Moreover, the GI50 with KM12 is 4.47 µM (inactive).

As for `O=c1[nH]cnc2sc(=S)c3c(c12)CCC3`, the GI50 was 23.5 µM (inactive) in the assay with NCI-H23; 21.9 µM (inactive) in the assay on RXF 393; 17.8 µM (inactive) in the assay on SK-MEL-5; > 100 µM (inactive) with SK-MEL-2; 33.3 µM (inactive) with UACC-257; 33.5 µM (inactive) in the assay with OVCAR-4. Moreover, the GI50 in the assay with SK-MEL-28 is 40.1 µM (inactive); with NCI-H460, 44.1 µM (inactive); in the assay with COLO 205 it was 14.4 µM (inactive); in the assay on EKVX it was 47.6 µM (inactive); with HCT-116, 31.3 µM (inactive); in the assay with SF-539, > 100 µM (inactive). Further, the GI50 with MOLT-4 is 11.7 µM (inactive); in the assay on UO-31, 25.8 µM (inactive); in the assay with HCT-15, 29 µM; with A549 it was 68.7 µM (inactive); in the assay on KM12 it was 51.5 µM (inactive).

Regarding `O=S(O)c1cc(Cl)cc(Cl)c1OCc1ccccc1`, the GI50 in the assay with NCI-H23, in the assay with RXF 393, with M19-MEL, in the assay on HCC 2998, with SK-MEL-2 and with UACC-257 was > 100 µM (inactive) throughout. Besides, the GI50 with OVCAR-4, in the assay with SK-MEL-28, in the assay with NCI-H460, in the assay on EKVX, with HCT-116 and with SF-539 was > 100 µM (inactive) in each case. The GI50 with SNB-78, with MOLT-4, in the assay with UO-31 and in the assay on KM12 was > 100 µM (inactive) throughout.

As for `OCC1C2C=CC(O2)[C@H]1CO` (stereo partly drawn), the GI50 was 42.4 µM (inactive) with RXF 393; > 100 µM (inactive) in the assay on M19-MEL; > 100 µM (inactive) in the assay on SK-MEL-5; > 100 µM (inactive) in the assay with HCC 2998; > 100 µM (inactive) in the assay on UACC-257; > 100 µM (inactive) with OVCAR-4. In addition, the GI50 in the assay on SK-MEL-28, with NCI-H460, in the assay with COLO 205, in the assay on EKVX, in the assay on HCT-116 and with SF-539 was > 100 µM (inactive) throughout. Besides, the GI50 with SNB-78 is > 100 µM (inactive); in the assay on MOLT-4, > 100 µM (inactive); in the assay on UO-31 it was > 100 µM (inactive); with HCT-15, greater than 100 µM; in the assay with A549 it was > 100 µM (inactive); in the assay on KM12 it was > 100 µM (inactive).

For the origin of these results see ChEMBL document CHEMBL1201862, “PubChem BioAssay data set” (2004).
